This note sets out measurements from patent US20070088019A1, “Macroheterocyclic compounds as kinase inhibitors” (priority 2005, published 2007).

One assay has as its target PKC isoform γ (Homo sapiens, UniProt P05129). Nature of the assay: Protein Kinase C histone-based assay, PKC gamma. It is filed as biochemical. The settings on record: histone substrate, 30 μM ATP, 10 min at 30° C. Here is the method: (§1) Protein Kinase C Histone-Based Assay
(§2) Compounds were evaluated for PKC selectivity using histone III as the substrate. The PKC isoforms α, β-II or γ were added to a reaction mixture containing 20 mM HEPES, (pH 7.4), […] CaCl2, 10 mM MgCl2, 1 mM EGTA. 100 μg/mL phosphatidylserine, 20 μg/mL diacylglycerol, 30 μM ATP, 1 μCi (^33P)ATP, and 200 μg/mL […]. The reaction was incubated for 10 min at 30° C. Reactions were terminated by TCA precipitation and spotting on Whatman P81 filters. Filters were washed in 75 mM phosphoric acid and the radioactivity quantified by liquid scintillation counting.

Assay [1] deals with T1, recombinant rabbit GSK-3β protein (Oryctolagus cuniculus, UniProt G1T8E2).
T1 construct: purchased New England Biolabs
Kind of assay: Glycogen Synthase Kinase-3 assay. In kind it is biochemical. The settings on record: PPI-2 substrate, 33P-ATP, 90 minutes at 30° C. The method, then:
Glycogen Synthase Kinase-3 Assay
Compounds were tested for the ability to inhibit recombinant rabbit GSK-3β protein using the following protocol. The test compound was added to a reaction mixture containing Protein phosphatase inhibitor-2 (PPI-2) (Calbiochem) (45 ng), rabbit GSK-3β protein (New England Biolabs) (0.75 units) and ^33P-ATP (1 μCi) in 50 mM Tris-HCl (pH 8.0), 10 mM MgCl2, 0.1% BSA, 1 mM DTT and 100 μM Sodium Vanadate. The mixture was reacted for 90 minutes at 30° C. to allow phosphorylation of the PPI-2 protein and then the protein in the reaction was precipitated using 10% TCA. The precipitated protein was collected on filter plates (MultiScreen-DV/Millipore), which were subsequently washed. Finally, the radioactivity was quantified using a TopCount Scintillation Counter (Packard). […] Staurosporine or Valproate, known inhibitors of GSK-3β, were used as a positive control for screening.

A further assay deals with PKC isoform α (Homo sapiens, UniProt P17252). Kind of assay: Protein Kinase C histone-based assay, PKC alpha. It is filed as biochemical. The settings on record: histone substrate, 30 μM ATP, 10 min at 30° C. The method, then: as §1, §2
The next assay concerns the target PKC Beta I (Homo sapiens, UniProt P05771). Nature of the assay: Protein Kinase C histone-based assay, PKC beta I. In kind it is biochemical. The settings on record: histone substrate, 30 μM ATP, 10 min at 30° C.
In another assay the target is PKC isoform β-II (Homo sapiens, UniProt P05771). Kind of assay: Protein Kinase C histone-based assay, PKC beta II. It is filed as biochemical. The following applies: histone substrate, 30 μM ATP, 10 min at 30° C. The method, then:
as §1, §2

The subject of assay [2] is retinal neovascularization. Nature of the assay: Murine retinopathy in-vivo model (oxygen-induced retinopathy). Set-up: species or system mouse. The settings on record: 60 mg/kg. An excerpt:
Murine Retinopathy In-Vivo Model
The methods used in this model are known to those skilled in the art and are referenced in the scientific literature, such as Smith, L. E., Wesolowski, E., McLellan, A., Kostyk, S. K., D'Amato, R., Sullivan, R., and D'Amore, P. A. “Oxygen-induced retinopathy in the mouse”. Invest. Ophthalmol. Vis. Sci., 1994, January; 35(1): 101-11.

PKC isoform β-II, sequence (P05771 1-673 isoform P05771-2): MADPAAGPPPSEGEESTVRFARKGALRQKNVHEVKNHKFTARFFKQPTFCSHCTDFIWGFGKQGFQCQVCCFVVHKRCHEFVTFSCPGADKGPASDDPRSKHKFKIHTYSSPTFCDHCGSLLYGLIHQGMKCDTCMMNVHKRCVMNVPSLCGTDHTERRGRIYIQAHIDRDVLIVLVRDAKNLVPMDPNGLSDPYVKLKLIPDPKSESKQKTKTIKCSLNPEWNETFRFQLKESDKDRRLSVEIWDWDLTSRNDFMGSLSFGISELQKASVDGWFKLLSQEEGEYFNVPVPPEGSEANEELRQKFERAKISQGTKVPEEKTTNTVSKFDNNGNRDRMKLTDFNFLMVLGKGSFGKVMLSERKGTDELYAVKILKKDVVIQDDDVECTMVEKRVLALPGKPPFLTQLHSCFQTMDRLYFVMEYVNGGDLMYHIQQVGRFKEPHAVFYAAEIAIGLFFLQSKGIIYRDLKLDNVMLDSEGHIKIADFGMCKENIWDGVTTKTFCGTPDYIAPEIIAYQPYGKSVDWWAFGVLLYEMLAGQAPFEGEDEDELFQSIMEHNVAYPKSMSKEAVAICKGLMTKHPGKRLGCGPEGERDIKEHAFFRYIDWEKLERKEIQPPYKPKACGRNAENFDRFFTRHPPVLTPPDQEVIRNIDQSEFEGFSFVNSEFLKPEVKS
PKC Beta I, sequence (P05771 whole entry, canonical isoform): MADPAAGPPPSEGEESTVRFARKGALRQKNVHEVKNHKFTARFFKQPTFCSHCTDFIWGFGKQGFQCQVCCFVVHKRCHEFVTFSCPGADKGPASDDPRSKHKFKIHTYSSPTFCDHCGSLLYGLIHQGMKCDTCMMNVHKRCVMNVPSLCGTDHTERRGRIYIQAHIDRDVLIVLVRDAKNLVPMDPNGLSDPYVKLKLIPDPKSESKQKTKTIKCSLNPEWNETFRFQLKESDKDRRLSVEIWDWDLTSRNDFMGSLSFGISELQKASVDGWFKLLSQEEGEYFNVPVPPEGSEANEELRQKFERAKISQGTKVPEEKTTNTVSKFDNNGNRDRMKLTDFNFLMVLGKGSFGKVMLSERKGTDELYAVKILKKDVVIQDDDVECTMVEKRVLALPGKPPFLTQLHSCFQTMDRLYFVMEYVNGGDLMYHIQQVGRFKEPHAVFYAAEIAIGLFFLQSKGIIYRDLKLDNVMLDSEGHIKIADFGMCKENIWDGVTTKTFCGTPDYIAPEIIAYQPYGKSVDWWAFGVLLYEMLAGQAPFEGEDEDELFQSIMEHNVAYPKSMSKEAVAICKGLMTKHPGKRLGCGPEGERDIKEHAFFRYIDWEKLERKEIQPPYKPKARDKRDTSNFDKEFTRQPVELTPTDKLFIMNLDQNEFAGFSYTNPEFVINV
T1 sequence (G1T8E2 1-432): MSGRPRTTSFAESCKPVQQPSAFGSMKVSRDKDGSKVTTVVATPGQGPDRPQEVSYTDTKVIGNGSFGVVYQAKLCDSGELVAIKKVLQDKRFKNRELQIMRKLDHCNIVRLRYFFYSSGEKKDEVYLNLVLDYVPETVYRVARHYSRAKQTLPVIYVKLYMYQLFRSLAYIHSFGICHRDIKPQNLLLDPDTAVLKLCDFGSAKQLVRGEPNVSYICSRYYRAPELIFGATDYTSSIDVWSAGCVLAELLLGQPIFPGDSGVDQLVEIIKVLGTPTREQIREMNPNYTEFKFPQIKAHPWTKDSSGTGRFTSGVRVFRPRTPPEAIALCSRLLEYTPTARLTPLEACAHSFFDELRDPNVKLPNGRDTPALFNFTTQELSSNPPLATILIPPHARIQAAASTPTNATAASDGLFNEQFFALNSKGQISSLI

Turning to `O=C1NC(=O)C2=C1c1cn(c3ccccc13)CCNCCSCCNCCn1cc2c2ccccc21` [Compound 1, 10,11,12,13,14,16,17,18,19,20-decahydro-15-thio-2,9,12,18,21-pentaaza-1H-diindolo[1,2,3-m,n:3′,2′,1′-r,s]cyclononadec-14,16,18-trien[16,17-c]-pyrrole-2,5-dione], the IC50 stood at 360 nM on PKC isoform γ; 5 nM in assay [1]; 160 nM against PKC isoform α; 9 nM at PKC Beta I; 6 nM on PKC isoform β-II.

On to `CN1CCOCCN(C)CCn2cc(c3ccccc32)C2=C(C(=O)NC2=O)c2cn(c3ccccc23)CC1` [Compound 2, 12,18-dimethyl-10,11,12,13,14,16,17,18,19,20-decahydro-15-oxa-2,9,12,18,21-pentaaza-1H-diindolo[1,2,3-m,n:3′,2′,1′-r,s]cyclononadec-14,16,18-trien[16,17-c]-pyrrole-2,5-dione], for which the IC50 at PKC isoform γ turned out to be 1560 nM; in assay [1], 6 nM; at PKC isoform α, 490 nM; on PKC Beta I it was 27 nM; against PKC isoform β-II it was 41 nM.

For `O=C1NC(=O)C2=C1c1cn(c3ccccc13)CCNCCOCCNCCn1cc2c2ccccc21` [Compound 3, 10,11,12,13,14,16,17,18,19,20-decahydro-15-oxa-2,9,12,18,21-pentaaza-1H-diindolo[1,2,3-m,n:3′,2′,1′-r,s]cyclononadec-14,16,18-trien[16,17-c]-pyrrole-2,5-dione], the retinal neovascularization result in assay [2] is reported as “inhibited retinal neovascularization”. Moreover, the IC50 is 5840 nM at PKC isoform γ; 7 nM in assay [1]; 330 nM against PKC isoform α; 9 nM on PKC Beta I; 13 nM on PKC isoform β-II.

On to `CN1CCOCCNCCn2cc(c3ccccc32)C2=C(C(=O)NC2=O)c2cn(c3ccccc23)CC1` [Compound 4, 18-methyl-10,11,12,13,14,16,17,18,19,20-decahydro-15-oxa-2,9,12,18,21-pentaaza-1H-diindolo[1,2,3-m,n:3′,2′,1′-r,s]cyclononadec-14,16,18-trien[16,17-c]-pyrrole-2,5-dione], for which the IC50 at PKC isoform γ turned out to be 1200 nM; on PKC isoform α, 280 nM; against PKC Beta I it was 6 nM; at PKC isoform β-II it was 8 nM.

Usually IC50 stands for the midpoint of a concentration-inhibition curve.
